Source: patent US20090163452A1, “COMPOSITIONS AND METHODS FOR LOWERING SERUM CHOLESTEROL” (priority 2007, published 2009)

How the values were obtained:
CYP3A = details: in vitro; complex with the vitamin D receptor; CYP3A substrate midazolam; cited from earlier work
[1] = Plasma atorvastatin and metabolite concentrations/AUC (LC-MS/MS) with and without supplemental vitamin D; type: in vivo, human
Procedure: Study protocol. A prospective crossover study was performed. […] Columbus Ohio 43216). All other prescribed medications were continued unchanged throughout the study. […] The sample cone voltage and collision energy for all analytes and internal standard were set at 30 V and 20 eV, respectively. Chromatography was performed on BDS C18 column (50×4.6 mm, 5 μm particle size, Thermo Electron Corporation, Bellefonte, Pa.). […] Twenty-five percent of flow liquid was split into the mass system. […] The organic layer then transferred to another tube and evaporated by N2 gas and reconstituted with 0.2 ml 50% CH3CN containing 0.05% acetic acid and 5 mM ammonium acetate, and 20 μl was injected onto column. Lower limit of detection was 0.313 ng/ml for atorvasatin and metabolites. […] Area under the plasma concentration vs. time curve (AUC) was calculated by trapezoidal rule.

circulating cholesterol = assay: Example 2: atorvastatin with 1000 IU/day vitamin D2 or D3 or placebo for 12 weeks, circulating cholesterol; type: in vivo, human; details: co-administration with atorvastatin
Procedure: The focus is on clinical populations including the elderly, frail, and minorities under steady-state conditions and with conditions reflecting “usual” clinical conditions with use of sparse sampling techniques and minimal impact on clinical care. […] About 90 participants are enrolled, with 30 receiving placebo, 30 receiving vitamin D2, and 30 receiving vitamin D3. Total vitamin D intake is analyzed (primarily driven by dairy food intake and supplements), and patients with major absorptive disorders (intestinal bypass surgery, feeding tubes requiring liquid diets, etc) are excluded. Other factors that could affect vitamin D absorption such as alcohol intake are evaluated.

[2] = system: cholesterol (total, LDL-cholesterol, and HDL-cholesterol); assay: Serum cholesterol concentrations (enzymatic assay) in patients on atorvastatin with and without supplemental vitamin D; type: in vivo, human; details: for Cholesterol Total: serum; for Cholesterol Total / LDL-cholesterol / HDL-cholesterol: mean ± S.D.; for LDL-cholesterol: calculated LDL
Procedure: Study protocol. A prospective crossover study was performed. […] Columbus Ohio 43216). All other prescribed medications were continued unchanged throughout the study. […] Lipid concentration data. Serum samples were analyzed for cholesterol, LDL-cholesterol (calculated) and HDL-cholesterol concentrations by enzymatic assay (Quest Diagnostics, San Jose, Calif.).

[3] = Serum vitamin D metabolite concentrations (LCMSMS) in patients on atorvastatin, crossover with/without supplemental vitamin D; type: in vivo, human; details: vitamin D supplementation 800 IU/day for six weeks (On-D), mean ± S.D.
Procedure: Study protocol. A prospective crossover study was performed. […] If subjects were taking vitamin D supplementation at recruitment, assigned study order was “On-D” after six week of standardized study dispensed vitamins followed by the “Off-D” study after six weeks of vitamin D discontinuation. […] All other prescribed medications were continued unchanged throughout the study.

[4] = system: cholesterol (total, LDL-cholesterol); assay: Example 3: 1000 IU/day vitamin D for 12 weeks in humans not receiving atorvastatin, cholesterol; type: in vivo, human; details: one middle-aged subject
Procedure: A study is performed with 1000 IU/day of either vitamin D2 or vitamin D3 or identically packaged placebo for a period of 12 weeks. Cholesterol (total, LDL-cholesterol, HDL-cholesterol) and triglycerides are evaluated before and during supplemental vitamin D or placebo. Focus is on adult humans with or without known lipid disorders that are not receiving atorvastatin.

[5] = no vitamin D supplementation (Off-D), atorvastatin
[6] = vitamin D supplementation 800 IU/day six weeks (On-D), patients on atorvastatin

C=C1/C(=C\C=C2/CCC[C@]3(C)[C@@H]([C@H](C)CCCC(C)(C)O)CC[C@@H]23)C[C@@H](O)C[C@@H]1O [1,25-(OH)2 vitamin D]
regulation of CYP3A activity (CYP3A): increased transcription of CYP3A protein and greater metabolism of the CYP3A substrate midazolam

CC(C)c1c(C(=O)Nc2ccccc2O)c(-c2ccccc2)c(-c2ccc(F)cc2)n1CCC(O)CC(O)CC(=O)O (centres unmarked) [2-OH, 2-hydroxyatorvastatin acid]
ratio of hydroxy-atorvastatin acid to atorvastatin ([1]; during supplemental vitamin D): 0.74±0.36 | ratio of hydroxy-atorvastatin acid to atorvastatin ([1]; off-D): 0.81±0.32

CC(C)c1c(C(=O)Nc2ccc(O)cc2)c(-c2ccccc2)c(-c2ccc(F)cc2)n1CC[C@@H](O)C[C@@H](O)CC(=O)O [4-hydroxy-atorvastatin acid, 4-hydroxyatorvastatin acid]
AUC/concentrations during vitamin D co-administration compared to the off-D study period ([1]; comparison between study periods): significantly lower | ratio of hydroxy-atorvastatin acid to atorvastatin ([1]; during supplemental vitamin D): 0.09±0.09 | ratio of hydroxy-atorvastatin acid to atorvastatin ([1]; off-D): 0.10±0.09

C=C1CC[C@H](O)C/C1=C/C=C1\CCC[C@]2(C)[C@@H]([C@H](C)CCCC(C)C)CC[C@@H]12 [D3, cholecalciferol]
circulating cholesterol compared with atorvastatin and placebo (circulating cholesterol): additional reduction

CC(C)c1c(C(=O)Nc2ccccc2)c(-c2ccccc2)c(-c2ccc(F)cc2)n1CC[C@@H](O)C[C@@H](O)CC(=O)O [atorvastatin]
Cholesterol Total ([2]; no vitamin D supplementation (Off-D), atorvastatin 45±33 mg/day): 169 ± 35 mg/dL | Cholesterol Total ([2]; no vitamin D supplementation (Off-D), atorvastatin 45±33 mg/day, listed as Atorvastatin): 169 ± 35 mg/dL | LDL-cholesterol [2, 5]: 97 ± 28 mg/dL | LDL-cholesterol ([2]; no vitamin D supplementation (Off-D), atorvastatin, listed as Atorvastatin): 97 ± 28 mg/dL | HDL-cholesterol [2, 5]: 47 ± 11 mg/dL

C=C1CC[C@H](O)C/C1=C/C=C1\CCC[C@]2(C)[C@@H]([C@H](C)/C=C/[C@H](C)C(C)C)CC[C@@H]12 [vitamin D2, ergocalciferol]
circulating cholesterol compared with atorvastatin and placebo (circulating cholesterol): additional reduction

vitamin D
Vitamin D (25-OH) Total 25-hydroxy serum concentration ([3]; patients on atorvastatin): 29 ± 14 ng/mL | Vitamin D (active) 1,25-dihydroxy serum concentration ([3]; patients on atorvastatin): 38 ± 15 pg/mL | D3, 25-hydroxy serum concentration [3]: 20 ± 17 ng/mL | difference in HDL-cholesterol with vitamin D supplementation ([2]; On-D versus Off-D): No difference | subjects with lower total cholesterol during supplemental vitamin D ([2]; On-D versus Off-D, patients on atorvastatin): thirteen of sixteen | mean difference in LDL-cholesterol ([2]; after six weeks of vitamin D supplementation, co-administered with atorvastatin): 14.4% | Cholesterol Total ([2]; vitamin D supplementation 800 IU/day six weeks (On-D), patients on atorvastatin 45±33 mg/day): 157 ± 37 mg/dL | LDL-cholesterol [2, 6]: 83 ± 30 mg/dL | HDL-cholesterol [2, 6]: 44 ± 11 mg/dL | total cholesterol ([4]; after about 12 weeks of 1000 IU vitamin D (single and combined forms of D2 and D3), 241 before vitamin D): 201 mg/dL | LDL-cholesterol ([4]; after about 12 weeks of 1000 IU vitamin D, 125 before vitamin D): 112 mg/dL | LDL-cholesterol ([4]; after about 12 weeks of 1000 IU vitamin D, 144 before vitamin D): 98 mg/dL | total cholesterol ([4]; after about 12 weeks of 1000 IU vitamin D, 238 before vitamin D): 219 mg/dL
